In one assay the test system is interaction Parkin-p38. In words: Reverse two-hybrid screening assay in yeast (growth on 5-fluoroorotic acid). Particulars: internal control; agar medium with 0.35 g/l 5FOA, 30° C., 48 h and/or 72 h. It is filed as cell-based, Saccharomyces cerevisiae. The source says: The Saccharomyces cerevisiae strain used for the screening can be the L40 strain used to clone the p38 protein. However, this strain must contain the URA3 reporter gene in place of the HIS3 reporter gene under the control of a promoter containing a sequence to which the LexA protein attaches to induce transcription. This strain may also contain a disruption in the erg6 gene and/or genes such as pdr5 or pdr11, to increase cell permeability to the compounds tested during the screening (WO96/10082).
This strain is simultaneously transformed with the two plasmids encoding the p38 protein or parkin used in the previous two-hybrid test or else encoding homologous or truncated forms of these two proteins. The interaction between these proteins confers a Ura+phenotype on the doubly-transformed strain, by reconstituting a transcription factor capable of inducing transcription of the URA3 reporter gene. This Ura+ phenotype also makes it possible to use the sensitivity of the strain to 5-fluoorotic acid (5FOA) for reverse two-hybrid “positive” screening. […]
48 h and/or 72 h and they may be read by visual examination. […] The compounds which have made it possible to obtain such a response of strain growth restoration are identified as being positive and recorded in a database.

The subject of assay [1] is COS7 cells overexpressing p38. In words: p38 perinuclear inclusions (aggresomes) by immunocytochemistry in COS7 cells. Particulars: 15 μg/ml overnight. It is filed as cell-based. On the procedure: The cells (COS7, 2.5′ 104 and SH-SY5Y cells, 8′ 104) were transfected with the plasmids indicated (pcDNA3-myc-p38, 0.5 ·g; or pcDNA3-myc-p38 and pcDNA3-HA-Parkin, 0.25 ·g of each), and treated or not treated with: epoxomicin (Affiniti, 1 μM), nocodazole (Sigma, 15 μg/ml), cytochalasin D (Sigma, 200 nM) overnight. Forty-eight hours after transfection, the cells were fixed and subjected to standard immunocytochemistry procedures. The polyclonal primary antibodies used were: anti-p38 (M. Mirande, 1:20 000), anti-Parkin (Asp5, 1:400), anti-proteasome 20S (Affiniti, 1:2500), anti-Hsp70 (Stressgen, 1:2500), anti-ubiquitin (Dako, 1:100) and anti-actin (Sigma, 1:100). The monoclonal primary antibodies were: anti ·a-tubulin (clone DM 1A, Sigma, 1:1000), antivimentin (DAKO, clone V9, 1:100) and anti-myc (clone 9E10, Santa Cruz, 1:400). The secondary antibodies were: anti-mouse IgGs conjugated to the fluorochrome Alexa Fluor 488 (Interchim, 1:200) and anti-rabbit IgGs conjugated to the fluorochrome CY3 (Jackson ImmunoResearch, 1:500). The cells were analysed by confocal microscopy.
We analysed the nature and the composition of the p38 protein perinuclear inclusions formed when p38 is overexpressed in cells of the COS7 line. In particular, we wondered whether these inclusions could be of the aggresome type (Kopito et al., 2000). […]

Turning to `O=c1cnn([C@@H]2O[C@H](CO)[C@@H](O)[C@H]2O)c(=O)[nH]1` [6-azauridine], the “yeast strain growth in the presence of 5FOA” value in the assay with interaction Parkin-p38 is recorded as “restores strain growth”. Regarding `COC(=O)Nc1nc2ccc(C(=O)c3cccs3)cc2[nH]1` [nocodazole], in assay [1], the “effect on p38 perinuclear aggregates” value is recorded as “dispersion of the perinuclear aggregates”.

The values above are taken from patent US7070940B2, “Method for determining the ability of a compound to modify the interaction between parkin and the p38 protein” (Aventis Pharma S.A., priority 2002, dated 2006).
